Reference: patent US11230541B2, “Heterocyclic compound” (Takeda Pharmaceutical Company Limited, priority 2017, dated 2022)

Target: T1, NMDA receptor composed of four subunits including 2 sets of heterodimers of NR1 and NR2B (Homo sapiens, UniProt Q13224)
T1 construct: host or cells: HEK293 (tetracycline-induced expression)
Assay: NR2B Ca2+ influx assay (FLIPR, Fluo-4) in HEK293 cells expressing human GRIN1 and GRIN2B
Format: cell-based
Conditions: HEK293, 10 μM final compound concentration, glutamic acid/glycine-induced Ca2+ influx, read-out: inhibitory rate (10 μM compound concentration)
From the text: To confirm the “antagonistic action on an NMDA receptor containing the NR2B subunit” of the compound of the present invention, human embryonic kidney cell expressing the “NMDA receptor composed of four subunits including 2 sets of heterodimers of NR1 and NR2B”, specifically HEK293 cell expressing human glutamate ionotropic receptor NMDA type subunit 1 (GRIN1) and human glutamate ionotropic receptor NMDA type subunit 2B (GRIN2B), was used and the activation suppressive effect on the receptors was measured.
As an index of the NMDA receptor activation, intracellular calcium ion (Ca^2+) influx caused by the binding of glycine and glutamic acid with NR1 and NR2B, respectively, was used. HEK293 cells were purchased from ChanTest. The cells were cultured in a DMEM/F-12 (COSMO BIO, 10-092-CM) medium added with 10% FBS′(fetal bovine serum, AusGene), 100 units/mL penicillin, 100 μg/mL streptomycin, 500 μg/mL neomycin, 100 μg/mL Zeocin, 5 μg/mL Blasticidin at 37° C., 5% CO2. The cells were detached from flask with trypsin the day before the assay, suspended in a seeding medium (DMEM (Invitrogen, 31053) added with 10% FBS, 100 units/mL penicillin, 100 μg/mL streptomycin) at 8×10^5 cells/mL, seeded by 25 μL per well in a 384-well plate (Falcon, 356663) at 20000 cells/well, and cultured overnight in an incubator. On the day of the assay, tetracycline (Wako Pure Chemical Industries, Ltd., 209-16561) was diluted with the seeding medium at 2 μg/mL, added at […] to the plate seeded with the cells, and cultured for 2 hr in an incubator. Thereafter, the medium was removed, and the cells were washed with 50 μL/well assay buffer (137 mM NaCl, 4 mM KCl, 1.8 mM CaCl2, 10 mM HEPES (pH 7.2), 10 mM Glucose, 0.1% BSA). Then, a loading buffer (assay buffer added with 2.5 uM Fluo-4AM, 2 mM Amaranth, 1 mM Tartrazine) was added at 25 μL/well, and loading was performed in the incubator for 30 min, and at room temperature for 15 min. A solution (25 μL) of the Example compound diluted with the above-mentioned assay buffer at 30 μM (final concentration 10 μM) was added, and the cells were stood for 15 min at room temperature. Using FLIPR (Molecular Devices), 25 μL of an assay buffer containing 30 μM glutamic acid, 30 μM glycine was added, and the fluorescence signal was measured every 3 seconds for 5 min. The inhibitory activity was calculated as a relative activity value (inhibitory rate) that inhibits 100% of the cumulative value of the fluorescence value of a well added with a buffer free of glutamic acid, glycine, relative to the cumulative value of the fluorescence value of each well.

T1 sequence (Q13224 27-1484, other chains not shown): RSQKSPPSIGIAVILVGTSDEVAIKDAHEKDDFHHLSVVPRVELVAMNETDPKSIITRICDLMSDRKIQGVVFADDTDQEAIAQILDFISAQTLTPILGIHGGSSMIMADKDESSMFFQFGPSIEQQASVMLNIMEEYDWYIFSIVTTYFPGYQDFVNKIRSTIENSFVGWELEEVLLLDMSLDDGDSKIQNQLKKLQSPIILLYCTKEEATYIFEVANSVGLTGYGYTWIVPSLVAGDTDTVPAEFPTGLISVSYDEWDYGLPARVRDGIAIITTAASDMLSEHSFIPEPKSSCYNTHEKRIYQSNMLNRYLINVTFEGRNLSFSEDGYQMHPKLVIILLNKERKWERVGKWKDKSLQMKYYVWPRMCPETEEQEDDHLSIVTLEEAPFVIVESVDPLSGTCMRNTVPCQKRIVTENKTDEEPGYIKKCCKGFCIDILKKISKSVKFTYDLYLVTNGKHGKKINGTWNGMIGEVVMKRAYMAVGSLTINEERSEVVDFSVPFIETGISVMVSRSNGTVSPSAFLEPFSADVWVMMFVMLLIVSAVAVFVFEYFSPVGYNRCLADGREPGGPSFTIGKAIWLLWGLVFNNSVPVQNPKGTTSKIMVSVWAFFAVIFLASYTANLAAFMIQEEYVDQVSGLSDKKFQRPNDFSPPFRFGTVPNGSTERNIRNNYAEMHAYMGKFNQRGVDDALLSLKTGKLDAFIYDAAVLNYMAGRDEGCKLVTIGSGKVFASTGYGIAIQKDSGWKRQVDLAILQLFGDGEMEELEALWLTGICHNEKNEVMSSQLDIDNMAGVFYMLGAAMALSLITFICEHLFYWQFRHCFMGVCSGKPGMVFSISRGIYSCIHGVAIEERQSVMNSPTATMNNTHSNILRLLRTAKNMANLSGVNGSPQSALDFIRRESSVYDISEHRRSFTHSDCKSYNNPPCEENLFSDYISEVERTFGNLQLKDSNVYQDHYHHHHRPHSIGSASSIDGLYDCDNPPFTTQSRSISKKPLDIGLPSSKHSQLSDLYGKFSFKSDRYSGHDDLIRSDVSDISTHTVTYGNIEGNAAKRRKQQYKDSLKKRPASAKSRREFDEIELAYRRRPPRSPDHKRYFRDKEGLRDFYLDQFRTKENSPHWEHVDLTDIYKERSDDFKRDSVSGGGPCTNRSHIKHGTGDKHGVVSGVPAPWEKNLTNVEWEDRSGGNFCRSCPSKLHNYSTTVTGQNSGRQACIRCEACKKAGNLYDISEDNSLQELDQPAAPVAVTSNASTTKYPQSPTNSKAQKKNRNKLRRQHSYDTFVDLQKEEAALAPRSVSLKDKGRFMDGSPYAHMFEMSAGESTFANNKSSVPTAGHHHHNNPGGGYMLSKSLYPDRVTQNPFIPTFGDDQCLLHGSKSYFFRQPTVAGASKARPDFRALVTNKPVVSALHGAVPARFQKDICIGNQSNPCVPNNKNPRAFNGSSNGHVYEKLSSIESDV

Row | Compound | inhibition at 10 µM [%]
1 | O=C(NCc1c(C2CC2)ccc2[nH]ncc12)c1ccc(Cl)s1 [Example 71, 5-chloro-N-((5-cyclopropyl-1H-indazol-4-yl)methyl)thiophene-2-carboxamide] | 92
2 | COc1cc(C(=O)NCc2c(C3CC3)ccc3[nH]ncc23)ccc1F [Example 72, N-((5-cyclopropyl-1H-indazol-4-yl)methyl)-4-fluoro-3-methoxy-benzamide] | 89
3 | Cc1cc(C(=O)NCc2c(C3CC3)ccc3[nH]ncc23)ccc1F [Example 75, N-((5-cyclopropyl-1H-indazol-4-yl)methyl)-4-fluoro-3-methyl-benzamide] | 92
4 | Cc1cc(C(=O)NCc2c(C3CC3)ccc3[nH]ncc23)cc(F)c1F [Example 76, N-((5-cyclopropyl-1H-indazol-4-yl)methyl)-3,4-difluoro-5-methyl-benzamide] | 93
5 | O=C(NCc1c(C2CC2)ccc2[nH]ncc12)c1cc(F)c(F)c(F)c1 [Example 79, N-((5-cyclopropyl-1H-indazol-4-yl)methyl)-3,4,5-trifluoro-benzamide] | 92
6 | COc1cc(C(=O)NCc2c(C3CC3)ccc3[nH]ncc23)ccc1Cl [Example 81, 4-chloro-N-((5-cyclopropyl-1H-indazol-4-yl)methyl)-3-methoxybenzamide] | 82
7 | O=C(NCc1c(C2CC2)ccc2[nH]ncc12)c1cc(Cl)c(Cl)s1 [Example 83, 4,5-dichloro-N-((5-cyclopropyl-1H-indazol-4-yl)methyl)thiophene-2-carboxamide] | 93
8 | O=C(NCc1c(C2CC2)ccc2[nH]ncc12)c1cc(Cl)c(F)c(Cl)c1 [Example 86, 3,5-dichloro-N-((5-cyclopropyl-1H-indazol-4-yl)methyl)-4-fluorobenzamide] | 94
9 | O=C(NCc1c(C2CC2)ccc2[nH]ncc12)c1cc(F)c(Cl)c(Cl)c1 [Example 87, 3,4-dichloro-N-((5-cyclopropyl-1H-indazol-4-yl)methyl)-5-fluorobenzamide] | 94
10 | O=C(NCc1c(C2CC2)ccc2[nH]ncc12)c1cc(F)c(Cl)c(F)c1 [Example 90, 4-chloro-N-((5-cyclo-propyl-1H-indazol-4-yl)methyl)-3,5-difluorobenzamide] | 94
11 | O=C(NCc1c(C2CC2)ccc2[nH]ncc12)c1cc(F)c(C(F)(F)F)c(F)c1 [Example 91, N-((5-cyclopropyl-1H-indazol-4-yl)methyl)-3,5-difluoro-4-(trifluoro-methyl)benzamide] | 94
12 | Cc1ccc(C(=O)NCc2c(C3CC3)ccc3[nH]ncc23)cc1F [Example 93, N-((5-cyclopropyl-1H-indazol-4-yl)methyl)-3-fluoro-4-methyl-benzamide] | 94
13 | COc1ccc(C(=O)NCc2c(C3CC3)ccc3[nH]ncc23)cc1F [Example 94, N-((5-cyclopropyl-1H-indazol-4-yl)methyl)-3-fluoro-4-methoxy-benzamide] | 93
14 | O=C(NCc1c(C2CC2)ccc2[nH]ncc12)c1cc(F)c(F)c(Cl)c1 [Example 95, 3-chloro-N-((5-cyclopropyl-1H-indazol-4-yl)methyl)-4,5-difluorobenzamide] | 95
15 | COc1ncc(C(=O)NCc2c(C3CC3)ccc3[nH]ncc23)cc1F [Example 96, N-((5-cyclopropyl-1H-indazol-4-yl)methyl)-fluoro-6-methoxy-nicotinamide] | 93
16 | Cc1c(F)cc(C(=O)NCc2c(C3CC3)ccc3[nH]ncc23)cc1F [Example 97, N-((5-cyclopropyl-1H-indazol-4-yl)methyl)-3,5-difluoro-4-methylbenzamide] | 94
17 | O=C(NCc1c(C2CC2)ccc2[nH]ncc12)c1ccc(C(F)F)cc1 [Example 98, N-((5-cyclopropyl-1H-indazol-4-yl)methyl)-4-(difluoromethyl)-benzamide] | 90
18 | Cc1ccc(C(=O)NCc2c(C3CC3)ccc3[nH]ncc23)cc1 [Example 99, N-((5-cyclopropyl-1H-indazol-4-yl)methyl)-methylbenzamide] | 91
19 | O=C(NCc1c(C2CC2)ccc2[nH]ncc12)c1ccc(OC(F)F)cc1 [Example 100, N-((5-cyclopropyl-1H-indazol-4-yl)methyl)-4-(difluoromethoxy)-benzamide] | 91
20 | COc1ccc(C(=O)NCc2c(C3CC3)ccc3[nH]ncc23)cc1 [Example 101, N-((5-cyclopropyl-1H-indazol-4-yl)methyl)-methoxybenzamide] | 92
21 | O=C(NCc1c(C2CC2)ccc2[nH]ncc12)c1ccc(Cl)cc1 [Example 102, 4-chloro-N-((5-cyclopropyl-1H-indazol-yl)methyl)benzamide] | 92

Second part, the molecule after the results:

Row | inhibition at 10 µM [%] | Compound
22 | 94 | Cc1cc(C(=O)NCc2c(C3CC3)ccc3[nH]ncc23)ccc1Cl [Example 73, 4-chloro-N-((5-cyclopropyl-1H-indazol-yl)methyl)-3-methylbenzamide]
23 | 93 | Cc1ccc(C(=O)NCc2c(C3CC3)ccc3[nH]ncc23)cc1Cl [Example 74, 3-chloro-N-((5-cyclopropyl-1H-indazol-yl)methyl)-4-methylbenzamide]
24 | 92 | O=C(NCc1c(C2CC2)ccc2[nH]ncc12)c1ccc(F)c(Cl)c1 [Example 77, 3-chloro-N-((5-cyclopropyl-1H-indazol-4-yl)methyl)-4-fluorobenzamide]
25 | 93 | O=C(NCc1c(C2CC2)ccc2[nH]ncc12)c1ccc(Cl)c(F)c1 [Example 78, 4-chloro-N-((5-cyclopropyl-1H-indazol-yl)methyl)-3-fluorobenzamide]
26 | 93 | COc1ccc(C(=O)NCc2c(C3CC3)ccc3[nH]ncc23)cc1Cl [Example 80, 3-chloro-N-((5-cyclo-propyl-1H-indazol-4-yl)methyl)-4-methoxybenzamide]
27 | 94 | O=C(NCc1c(C2CC2)ccc2[nH]ncc12)c1ccc(C(F)(F)F)s1 [Example 82, N-((5-cyclopropyl-1H-indazol-4-yl)methyl)-5-(trifluoromethyl)-thiophene-2-carboxamide]
28 | 91 | Cc1ccc(C(=O)NCc2c(C3CC3)ccc3[nH]ncc23)cc1C(F)(F)F [Example 84, N-((5-cyclopropyl-1H-indazol-4-yl)methyl)-4-methyl-3-(trifluoro-methyl)benzamide]
29 | 93 | O=C(NCc1c(C2CC2)ccc2[nH]ncc12)c1ccc(F)c(C(F)(F)F)c1 [Example 85, N-((5-cyclopropyl-1H-indazol-4-yl)methyl)-4-fluoro-3-(trifluoromethyl)-benzamide]
30 | 93 | O=C(NCc1c(C2CC2)ccc2[nH]ncc12)c1ccc(OC(F)(F)F)c(F)c1 [Example 88, N-((5-cyclopropyl-1H-indazol-4-yl)methyl)-3-fluoro-4-(trifluoro-methoxy)benzamide]
31 | 91 | O=C(NCc1c(C2CC2)ccc2[nH]ncc12)c1ccc(C(F)(F)F)c(Cl)c1 [Example 89, 3-chloro-N-((5-cyclo-propyl-1H-indazol-4-yl)methyl)-4-(trifluoro-methyl)benzamide]
32 | 93 | O=C(NCc1c(C2CC2)ccc2[nH]ncc12)c1ccc(C(F)(F)F)c(F)c1 [Example 92, N-((5-cyclopropyl-1H-indazol-4-yl)methyl)-3-fluoro-4-(trifluoro-methyl)benzamide]
